The test system of data set [1] is tryptophan-hydroxylase (TPH) and aromatic-amino acid-decarboxylase (AAAD). Kind of data set: Intracellular enzymatic metabolisation by TPH and AAAD. The class given is in vitro ADME. The note with it: 7-HTP to 5,7-DHT, 6-HTP to 5,6-DHT. An excerpt:
The invention is put into practice according to the claims. […] These two enzymes, TPH and AAAD, are expressed extraordinarily strong in serotonin-producing tumor cells. Due to the unequally higher TPH-expression in these tumor cells in comparison with normal serotonin-producing tissues, only marginally toxic effects occur in these tissues.
FIG. 1. Reaction scheme of enzymatic metabolisation of 7-hydroxytryptophan (7-HTP) to 5,7-dihydroxytryptamine (5,7-DHT). The rate-limiting first step is mediated by the enzyme tryptophan-hydroxylase (TPH) and is followed by a rapid decarboxylation by the aromatic-amino acid-decarboxylase (AAAD).

Data set [2] concerns serotonin-producing human carcinoid cells BON. Kind of data set: Toxicity of 7-HTP on human carcinoid cells BON (FIG. 4). The class given is cell-based.
The test system of data set [3] is serotonin-producing cells NG108. Kind of data set: Toxicity of 7-HTP on serotonin-producing cells NG108 (FIG. 2). The class given is cell-based. An excerpt: (§1) FIG. 2. […] In contrast, the growth of COS7-cells that produce no serotonin is not affected by 7-HTP.
Another data set relates to COS7-cells. The experiment in a line: Growth of COS7-cells that produce no serotonin (FIG. 2). The class given is cell-based.
Excerpt: as §1

Data set [4] deals with serotonin-producing mastocytoma cells P815. The experiment in a line: Toxicity of 7-HTP on mastocytoma cells P815 (FIG. 3). The class given is cell-based.

As to `N[C@@H](Cc1c[nH]c2cc(O)ccc12)C(=O)O` [6-HTP, 6-hydroxytryptophan], the “intracellular metabolisation to dihydroxytryptamine toxin” value in data set [1] is recorded as “metabolised intracellularly”.

Consider `N[C@@H](Cc1c[nH]c2c(O)cccc12)C(=O)O` [7-HTP, 7-hydroxytryptophan], for which the “toxicity on the serotonin-producing human carcinoid cells BON” value in data set [2] is “rapidly and specifically killed”. Moreover, the “toxicity on the serotonin-producing cells NG108” value in data set [3] (NG108 cells, FIG. 2) was “Specific toxicity”. Moreover, in data set [1], the “intracellular metabolisation to dihydroxytryptamine toxin” value is on record as “metabolised intracellularly”. Also, the “growth of COS7-cells” value in the data set on COS7-cells was “not affected”. For the same molecule, the “toxicity on the serotonin-producing mastocytoma cells P815” value in data set [4] is “rapidly and specifically killed”.

For the molecule `N[C@@H](Cc1ccc(Cl)cc1)C(=O)O` [PCPA, p-chlorophenylalanin, reference compound], the “protection of 7-HTP-sensitive NG108-cells against 7-HTP toxicity” value in data set [3] (NG108 cells treated with 7-HTP plus TPH-inhibitor, no 5,7-DHT synthesised intracellularly) is reported as “can be protected”.

(Values after patent US20040097576A1, “Use of tryptophan derivatives for the specific cytostatic treatment of serotonin-producing tumors” (priority 2001, published 2004).)
